Measurements taken from patent US11311520B2, “Substituted dihydroimidazopyridinediones as MKNK1 and MKNK2 inhibitors” (Bayer Pharma Aktiengesellschaft, priority 2017, dated 2022).

Target: human full-length MKNK1 (Homo sapiens (Human), UniProt Q9BUB5, T344D)
Experiment: MKNK1 kinase high ATP assay (TR-FRET)
Type: biochemical
Settings: 2 mM ATP, 15 min preincubation with enzyme, GST-MKNK1 (T344D)
Procedure, shortened: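 GST-tagged full-length human MKNK1 (1-424, T344D, baculovirus-expressed) preincubated 15 min at 22 °C with compound, then reacted 30 min at 22 °C with 2 mM ATP and 0.06 μM biotinylated peptide (final) in HEPES pH 7.5. Phospho-substrate by TR-FRET (665/622 nm ratio), normalised to no-inhibitor and no-enzyme controls.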

Sequence of human full-length MKNK1 (Q9BUB5 other isoform, or with tags, fused parts or gaps T344D): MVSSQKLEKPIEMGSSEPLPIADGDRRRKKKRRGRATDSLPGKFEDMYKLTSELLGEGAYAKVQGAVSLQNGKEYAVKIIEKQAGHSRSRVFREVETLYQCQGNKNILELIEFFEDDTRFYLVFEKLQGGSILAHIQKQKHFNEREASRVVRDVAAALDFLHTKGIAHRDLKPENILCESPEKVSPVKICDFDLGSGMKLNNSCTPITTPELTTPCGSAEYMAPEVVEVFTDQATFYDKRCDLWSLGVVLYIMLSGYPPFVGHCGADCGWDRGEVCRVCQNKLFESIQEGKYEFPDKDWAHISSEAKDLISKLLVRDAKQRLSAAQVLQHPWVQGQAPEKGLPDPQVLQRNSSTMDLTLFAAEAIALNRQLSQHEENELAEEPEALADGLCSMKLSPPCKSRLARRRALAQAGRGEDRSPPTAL

Row | Structure (SMILES) | IC50 [nM]
1 | Cc1cc(Nc2ncnc3sc(C(=O)NCCN(C)C)cc23)c(=O)n2c1C(=O)NC21CCC(O)(C(F)(F)F)CC1 (centres unmarked) [Example 129, N-[2-(Dimethylamino)ethyl]-4-{[4-hydroxy-8′-methyl-1′,5′-dioxo-4-(trifluoromethyl)-1′,5′-dihydro-2′H-spiro[cyclohexane-1,3′-imidazo[1,5-a]pyridin]-6′-yl]amino}thieno[2,3-d]pyrimidine-6-carboxamide] | 21
2 | Cc1cc(Nc2ncnc3sccc23)c(=O)n2c1C(=O)NC21CCC(O)(C(F)(F)F)CC1 (centres unmarked) [Example 130, 4-Hydroxy-8′-methyl-6′-(thieno[2,3-d]pyrimidin-4-ylamino)-4-(trifluoromethyl)-2′H-spiro[cyclohexane-1,3′-imidazo[1,5-a]pyridine]-1′,5′-dione] | 7.9
3 | Cc1cc(Nc2ncnc(N)n2)c(=O)n2c1C(=O)NC2(C)C [Example 131, 6-[(4-Amino-1,3,5-triazin-2-yl)amino]-3,3,8-trimethyl-2,3-dihydroimidazo[1,5-a]pyridine-1,5-dione] | 32.2
4 | Cc1cc(Nc2ncnc3[nH]ccc23)c(=O)n2c1C(=O)NC2(C)C [Example 132, 3,3,8-Trimethyl-6-(7H-pyrrolo[2,3-d]pyrimidin-4-ylamino)-2,3-dihydroimidazo[1,5-a]pyridine-1,5-dione] | 0.7
5 | Cc1cc(Nc2ncnc3[nH]ncc23)c(=O)n2c1C(=O)NC2(C)C [Example 133, 3,3,8-Trimethyl-6-(1H-pyrazolo[3,4-d]pyrimidin-4-ylamino)-2,3-dihydroimidazo[1,5-a]pyridine-1,5-dione] | 10.1
6 | Cc1cc(Nc2ncnc3[nH]cnc23)c(=O)n2c1C(=O)NC2(C)C [Example 134, 3,3,8-Trimethyl-6-(9H-purin-6-ylamino)-2,3-dihydroimidazo[1,5-a]pyridine-1,5-dione] | 5.8
7 | Cc1cc(Nc2ncnc3sccc23)c(=O)n2c1C(=O)NC2(C)C [Example 135, 3,3,8-Trimethyl-6-(thieno[2,3-d]pyrimidin-4-ylamino)-2,3-dihydroimidazo[1,5-a]pyridine-1,5-dione] | 19.8
8 | Cc1cc(Nc2ncnc3sc(C(=O)O)cc23)c(=O)n2c1C(=O)NC2(C)C [Example 136, 4-[(3,3,8-Trimethyl-1,5-dioxo-1,2,3,5-tetrahydroimidazo[1,5-a]pyridin-6-yl)amino]thieno[2,3-d]pyrimidine-6-carboxylic acid] | 122
9 | Cc1cc(Nc2ncnc3sc(C(=O)NCCN(C)C)cc23)c(=O)n2c1C(=O)NC2(C)C [Example 137, N-[2-(Dimethylamino)ethyl]-4-[(3,3,8-trimethyl-1,5-dioxo-1,2,3,5-tetrahydroimidazo[1,5-a]pyridin-6-yl)amino]thieno[2,3-d]pyrimidine-6-carboxamide] | 21.1
10 | Cc1cc(Nc2ncnc3sc(C(=O)N(C)CCN(C)C)cc23)c(=O)n2c1C(=O)NC2(C)C [Example 138, N-[2-(Dimethylamino)ethyl]-N-methyl-4-[(3,3,8-trimethyl-1,5-dioxo-1,2,3,5-tetrahydroimidazo[1,5-a]pyridin-6-yl)amino]thieno[2,3-d]pyrimidine-6-carboxamide] | 33.6
11 | Cc1cc(Nc2ncnc3sc(C(=O)N4CC(NC(=O)OC(C)(C)C)C4)cc23)c(=O)n2c1C(=O)NC2(C)C [Example 139, tert-Butyl [1-({4-[(3,3,8-trimethyl-1,5-dioxo-1,2,3,5-tetrahydroimidazo[1,5-a]pyridin-6-yl)amino]thieno[2,3-d]pyrimidin-6-yl}carbonyl)azetidin-3-yl]carbamate] | 24.1
12 | Cc1cc(Nc2ncnc3sc(C(=O)N4CC(N)C4)cc23)c(=O)n2c1C(=O)NC2(C)C [Example 140, 6-({6-[(3-Aminoazetidin-1-yl)carbonyl]thieno[2,3-d]pyrimidin-4-yl}amino)-3,3,8-trimethyl-2,3-dihydroimidazo[1,5-a]pyridine-1,5-dione] | 22.3
13 | Cc1cc(Nc2ncnc3sc(C(=O)N4CC(C#N)C4)cc23)c(=O)n2c1C(=O)NC2(C)C [Example 141, 1-({4-[(3,3,8-Trimethyl-1,5-dioxo-1,2,3,5-tetrahydroimidazo[1,5-a]pyridin-6-yl)amino]thieno[2,3-d]pyrimidin-6-yl}carbonyl)azetidine-3-carbonitrile] | 24.2
14 | Cc1cc(Nc2ncnc3sc(C(=O)N4CC[C@@H](N(C)C)C4)cc23)c(=O)n2c1C(=O)NC2(C)C [Example 142, 6-[(6-{[(3R)-3-(Dimethylamino)pyrrolidin-1-yl]carbonyl}thieno[2,3-d]pyrimidin-4-yl)amino]-3,3,8-trimethyl-2,3-dihydroimidazo[1,5-a]pyridine-1,5-dione] | 20
15 | Cc1cc(Nc2ncnc3sc(C(=O)N4CCC(N(C)C)CC4)cc23)c(=O)n2c1C(=O)NC2(C)C [Example 143, 6-[(6-{[4-(Dimethylamino)piperidin-1-yl]carbonyl}thieno[2,3-d]pyrimidin-4-yl)amino]-3,3,8-trimethyl-2,3-dihydroimidazo[1,5-a]pyridine-1,5-dione] | 40.3
16 | Cc1cc(Nc2ncnc3sc(C(=O)N4C[C@H]5C[C@@H]4CO5)cc23)c(=O)n2c1C(=O)NC2(C)C [Example 144, 3,3,8-Trimethyl-6-({6-[(1R,4R)-2-oxa-5-azabicyclo[2.2.1]hept-5-ylcarbonyl]thieno[2,3-d]pyrimidin-4-yl}amino)-2,3-dihydroimidazo[1,5-a]pyridine-1,5-dione] | 12.9
17 | Cc1cc(Nc2ncnc3sc(C(=O)O)c(C)c23)c(=O)n2c1C(=O)NC2(C)C [Example 145, 5-Methyl-4-[(3,3,8-trimethyl-1,5-dioxo-1,2,3,5-tetrahydroimidazo[1,5-a]pyridin-6-yl)amino]thieno[2,3-d]pyrimidine-6-carboxylic acid] | 115
18 | Cc1cc(Nc2ncnc(NC(=O)C3CC3)n2)c(=O)n2c1C(=O)NC21CCC1 [Example 146, N-{4-[(8′-Methyl-1′,5′-dioxo-1′,5′-dihydro-2′H-spiro[cyclobutane-1,3′-imidazo[1,5-a]pyridin]-6′-yl)amino]-1,3,5-triazin-2-yl}cyclopropanecarboxamide] | 8.2
19 | Cc1cc(Nc2ncnc(N)n2)c(=O)n2c1C(=O)NC21CCC1 [Example 147, 6′-[(4-Amino-1,3,5-triazin-2-yl)amino]-8′-methyl-2′H-spiro[cyclobutane-1,3′-imidazo[1,5-a]pyridine]-1′,5′-dione] | 12.7
20 | Cc1cc(Nc2ncnc3[nH]ccc23)c(=O)n2c1C(=O)NC21CCC1 [Example 148, 8′-Methyl-6′-(7H-pyrrolo[2,3-d]pyrimidin-4-ylamino)-2′H-spiro[cyclobutane-1,3′-imidazo[1,5-a]pyridine]-1′,5′-dione] | 0.4
21 | Cc1cc(Nc2ncnc3sccc23)c(=O)n2c1C(=O)NC21CCC1 [Example 149, 8′-Methyl-6′-(thieno[2,3-d]pyrimidin-4-ylamino)-2′H-spiro[cyclobutane-1,3′-imidazo[1,5-a]pyridine]-1′,5′-dione] | 2.3
22 | Cc1cc(Nc2ncnc3sc(C(=O)O)cc23)c(=O)n2c1C(=O)NC21CCC1 [Example 150, 4-[(8′-Methyl-1′,5′-dioxo-1′,5′-dihydro-2′H-spiro[cyclobutane-1,3′-imidazo[1,5-a]pyridin]-6′-yl)amino]thieno[2,3-d]pyrimidine-6-carboxylic acid] | 18.5
23 | Cc1cc(Nc2ncnc3sc(C(=O)NCCN(C)C)cc23)c(=O)n2c1C(=O)NC21CCC1 [Example 151, N-[2-(Dimethylamino)ethyl]-4-[(8′-methyl-1′,5′-dioxo-1′,5′-dihydro-2′H-spiro[cyclobutane-1,3′-imidazo[1,5-a]pyridin]-6′-yl)amino]thieno[2,3-d]pyrimidine-6-carboxamide] | 4
24 | Cc1cc(Nc2ncnc3sc(C(=O)N(C)CCN(C)C)cc23)c(=O)n2c1C(=O)NC21CCC1 [Example 152, N-[2-(Dimethylamino)ethyl]-N-methyl-4-[(8′-methyl-1′,5′-dioxo-1′,5′-dihydro-2′H-spiro[cyclobutane-1,3′-imidazo[1,5-a]pyridin]-6′-yl)amino]thieno[2,3-d]pyrimidine-6-carboxamide] | 7.4
25 | Cc1cc(Nc2ncnc3sc(C(=O)N4CC(NC(=O)OC(C)(C)C)C4)cc23)c(=O)n2c1C(=O)NC21CCC1 [Example 153, tert-Butyl [1-({4-[(8′-methyl-1′,5′-dioxo-1′,5′-dihydro-2′H-spiro[cyclobutane-1,3′-imidazo[1,5-a]pyridin]-6′-yl)amino]thieno[2,3-d]pyrimidin-6-yl}carbonyl)azetidin-3-yl]carbamate] | 5.3
26 | Cc1cc(Nc2ncnc3sc(C(=O)N4CC(N)C4)cc23)c(=O)n2c1C(=O)NC21CCC1 [Example 154, 6′-({6-[(3-Aminoazetidin-1-yl)carbonyl]thieno[2,3-d]pyrimidin-4-yl}amino)-8′-methyl-2′H-spiro[cyclobutane-1,3′-imidazo[1,5-a]pyridine]-1′,5′-dione] | 5
27 | Cc1cc(Nc2ncnc3sc(C(=O)N4CC(C#N)C4)cc23)c(=O)n2c1C(=O)NC21CCC1 [Example 155, 1-({4-[(8′-Methyl-1′,5′-dioxo-1′,5′-dihydro-2′H-spiro[cyclobutane-1,3′-imidazo[1,5-a]pyridin]-6′-yl)amino]thieno[2,3-d]pyrimidin-6-yl}carbonyl)azetidine-3-carbonitrile] | 5.3
28 | Cc1cc(Nc2ncnc3sc(C(=O)N4CC[C@@H](N(C)C)C4)cc23)c(=O)n2c1C(=O)NC21CCC1 [Example 156, 6′-[(6-{[(3R)-3-(Dimethylamino)pyrrolidin-1-yl]carbonyl}thieno[2,3-d]pyrimidin-4-yl)amino]-8′-methyl-2′H-spiro[cyclobutane-1,3′-imidazo[1,5-a]pyridine]-1′,5′-dione] | 4.3
29 | Cc1cc(Nc2ncnc3sc(C(=O)N4CCC(N(C)C)CC4)cc23)c(=O)n2c1C(=O)NC21CCC1 [Example 157, 6′-[(6-{[4-(Dimethylamino)piperidin-1-yl]carbonyl}thieno[2,3-d]pyrimidin-4-yl)amino]-8′-methyl-2′H-spiro[cyclobutane-1,3′-imidazo[1,5-a]pyridine]-1′,5′-dione] | 7.9
